Test results reported in the supplement of paper PMC13380429.

Columns and labels:
Conditions in all cases: 72 h
Caco-2 [1] = assay: drug sensitivity score (DSS) for viability; higher = more toxic; extreme values may be limits of the assay
Calu-3 [2] = assay: as above
Vero E6 [3] = assay: as above
HepG2 [4] = assay: as above
U2OS [5] = assay: as above
Caco-2 [6] = assay: cell viability relative to DMSO; higher = less toxic
Calu-3 [7] = assay: as above
Vero E6 [8] = assay: as above
HepG2 [9] = assay: as above
U2OS [10] = assay: as above
Caco-2 [11] = assay: relative viability EC50 (midpoint between 100% and the lowest measured viability); higher = less toxic
Calu-3 [12] = assay: as above
Vero E6 [13] = assay: as above
HepG2 [14] = assay: as above
U2OS [15] = assay: as above

Structure (SMILES) | drug sensitivity score (Caco-2 [1]) | drug sensitivity score (Calu-3 [2]) | drug sensitivity score (Vero E6 [3]) | drug sensitivity score (HepG2 [4]) | drug sensitivity score (U2OS [5]) | cell viability (Caco-2 [6]; 1 nM) | cell viability (Caco-2 [6]; 10 nM) | cell viability (Caco-2 [6]; 100 nM) | cell viability (Caco-2 [6]; 1000 nM) | cell viability (Caco-2 [6]; 10000 nM) | cell viability (Calu-3 [7]; 1 nM) | cell viability (Calu-3 [7]; 10 nM) | cell viability (Calu-3 [7]; 100 nM) | cell viability (Calu-3 [7]; 1000 nM) | cell viability (Calu-3 [7]; 10000 nM) | cell viability (Vero E6 [8]; 1 nM) | cell viability (Vero E6 [8]; 10 nM) | cell viability (Vero E6 [8]; 100 nM) | cell viability (Vero E6 [8]; 1000 nM) | cell viability (Vero E6 [8]; 10000 nM) | cell viability (HepG2 [9]; 1 nM) | cell viability (HepG2 [9]; 10 nM) | cell viability (HepG2 [9]; 100 nM) | cell viability (HepG2 [9]; 1000 nM) | cell viability (HepG2 [9]; 10000 nM) | cell viability (U2OS [10]; 1 nM) | cell viability (U2OS [10]; 10 nM) | cell viability (U2OS [10]; 100 nM) | cell viability (U2OS [10]; 1000 nM) | cell viability (U2OS [10]; 10000 nM) | relative viability EC50 (Caco-2 [11]) | relative viability EC50 (Calu-3 [12]) | relative viability EC50 (Vero E6 [13]) | relative viability EC50 (HepG2 [14]) | relative viability EC50 (U2OS [15])
FC(F)(F)c1ccc(CNc2ccc(Cc3c[nH]c4ncccc34)cn2)cc1 [PLX647] | 0 | 0 | 0 | 0.1 | 0 | 96% | 102% | 94.7% | 94.2% | 91.3% | 102% | 96.4% | 105% | 93.9% | 94.7% | 95.7% | 98.8% | 96.7% | 98.5% | 96.8% | 100% | 97.6% | 97.4% | 101% | 86.9% | 104% | 97.6% | 101% | 97.7% | 96.4% | > 10 µM | > 10 µM | > 10 µM | > 10 µM | > 10 µM
O=C1NCCNC1c1cccs1 (stereo not given) [tenilsetam] | 0 | 0 | 0 | 0 | 0 | 105% | 95.1% | 103% | 97.5% | 97.4% | 92.3% | 98.2% | 100% | 97.1% | 99.1% | 97.2% | 103% | 90.1% | 97.7% | 101% | 106% | 106% | 96.4% | 97.2% | 92.3% | 103% | 96.3% | 104% | 96.2% | 102% | > 10 µM | > 10 µM | > 10 µM | > 10 µM | > 10 µM
COc1ccc(CCN(C)CCCC(C#N)(c2cc(OC)c(OC)c(OC)c2)C(C)C)cc1OC (stereo not given) [gallopamil] | 0 | 0 | 0 | 0 | 0 | 91.3% | 91.5% | 92.1% | 91.6% | 96% | 94.1% | 104% | 97% | 92.2% | 104% | 101% | 97.3% | 96.9% | 102% | 106% | 96.8% | 103% | 98.3% | 101% | 106% | 94% | 99.7% | 96.4% | 97.3% | 99.3% | > 10 µM | > 10 µM | > 10 µM | > 10 µM | > 10 µM
CS(=O)(=O)c1ccc(Cn2c3c(c4cc(F)cc(F)c42)CCCC3CC(=O)O)cc1 (stereo not given) | 0 | 0 | 0 | 0 | 0 | 97.6% | 96.4% | 96.5% | 96% | 97.7% | 99.7% | 98.4% | 95.3% | 103% | 100% | 98% | 101% | 100% | 99.1% | 95.4% | 108% | 91% | 97.3% | 95.6% | 94% | 93.1% | 97.2% | 93.5% | 97.1% | 97.6% | > 10 µM | > 10 µM | > 10 µM | > 10 µM | > 10 µM
COC(=O)c1ccccc1NC(=O)c1ccc(F)cc1 [EXO-1] | 0 | 0 | 0 | 0 | 0 | 99.5% | 93% | 100% | 103% | 100% | 97.9% | 98.1% | 99.6% | 95.6% | 96.5% | 95.2% | 94.6% | 91% | 93.6% | 99.5% | 95.6% | 99.9% | 91.8% | 94.7% | 111% | 98.7% | 91.8% | 98.3% | 95.7% | 98.8% | > 10 µM | > 10 µM | > 10 µM | > 10 µM | > 10 µM
C[C@@H]1O[C@@H](O[C@@H]2[C@@H](O)[C@H](OCCc3ccc(O)c(O)c3)O[C@H](CO)[C@H]2OC(=O)/C=C/c2ccc(O)c(O)c2)[C@H](O)[C@H](O)[C@H]1O [verbascoside] | 0 | 0 | 0 | 0 | 0 | 96.4% | 89.7% | 97.8% | 99.8% | 96.9% | 98.6% | 93.3% | 106% | 105% | 97.1% | 98.9% | 99.8% | 94.4% | 101% | 104% | 95.3% | 102% | 101% | 106% | 104% | 97.9% | 100% | 96.5% | 96.8% | 93.6% | > 10 µM | > 10 µM | > 10 µM | > 10 µM | > 10 µM
Nc1ccc(O)c(C(=O)O)c1 [mesalazine] | 0 | 0 | 0 | 0 | 0 | 112% | 98.6% | 109% | 97.7% | 100% | 109% | 100% | 107% | 96.5% | 102% | 105% | 104% | 103% | 102% | 92.2% | 112% | 100% | 103% | 104% | 97.3% | 103% | 101% | 103% | 96.8% | 104% | > 10 µM | > 10 µM | > 10 µM | > 10 µM | > 10 µM
